Experimental data reported in the NIST ThermoML archive (doi:10.1016/j.jct.2005.05.020).

Experiment: xn = mol fraction of the nth substance listed
Conditions: 101 kPa, Liquid

CCCCCC [hexane] + CCCCCCC
mass density [kg/m3]
Conditions	x1 = 0.1019	x1 = 0.2003	x1 = 0.3005	x1 = 0.4007	x1 = 0.5001	x1 = 0.5984	x1 = 0.7002	x1 = 0.7995	x1 = 0.8974
273.15 K	698.37	696.77	694.27	692.25	689.57	687.14	684.81	682.14	679.66
278.15 K	694.22	692.61	690.08	688.04	685.35	682.88	680.52	677.82	675.32
283.15 K	690.04	688.42	685.86	683.8	681.08	678.58	676.2	673.47	670.94
288.15 K	685.84	684.21	681.62	679.53	676.79	674.26	671.85	669.1	666.54
293.15 K	681.62	679.97	677.36	675.24	672.47	669.91	667.47	664.69	662.1
298.15 K	677.38	675.7	673.06	670.93	668.12	665.53	663.06	660.24	657.62
303.15 K	673.11	671.42	668.74	666.58	663.74	661.12	658.62	655.77	653.12
308.15 K	668.81	667.09	664.39	662.2	659.32	656.67	654.14	651.25	648.57
313.15 K	664.47	662.74	660	657.78	654.86	652.19	649.62	646.69	643.98
318.15 K	660.11	658.36	655.58	653.33	650.35	647.66	645.06	642.1	639.34
323.15 K	655.71	653.93	651.12	648.84	645.81	643.1	640.45	637.45	634.65
328.15 K	651.27	649.47	646.62	644.31	641.22	638.48	635.8	632.76	629.92
333.15 K	646.79	644.97	642.07	639.73	636.58	633.82	631.24	628.01	625.13
338.15 K	642.28	640.43	637.49	635.11	631.89	–	626.48	623.2	620.28
343.15 K	637.71	635.84	632.85	630.44	627.14	–	621.67	–	–
348.15 K	633.1	631.2	628.16	625.71	622.33	–	616.8	–	–
353.15 K	628.43	626.5	623.42	620.92	–	–	–	–	–
358.15 K	623.71	621.75	618.61	616.08	–	–	–	–	–
363.15 K	618.94	616.94	613.75	611.16	–	–	–	–	–
